Laboratory results published in US11066369B2, “N-(pyridin-2-yl)pyridine-sulfonamide derivatives and their use in the treatment of disease” (Novartis AG, priority 2016, dated 2021).
Counter-ions that a name gives are not always drawn. Like-named read-outs stand apart in the source and are kept apart here.

Assays:
delF508-CFTR = molecular target: T1, delF508-CFTR (Homo sapiens, UniProt P13569, DEL508-508); test: Measurement of delF508-CFTR functional activity in primary human bronchial epithelial cells (HBECs) using Multi-Transepithelial Clamp Circuit (MTECC-24) assay; assay type: cell-based; details: primary CF HBECs; for MTECC24 CFHBEC- Amax %: test compound added 24h before assay plus potentiator, relative to reference combination (2 μM corrector + 0.5 μM potentiator); for EC50: test compound added 24h before assay, in the presence of potentiator, mean of at least two replicates, read-out: MTECC24 CFHBEC- EC50
T1 construct: functional activity of the CFTR channel (Chloride ion transport) in patient derived primary human bronchial epithelial cells; host or cells: patient-derived primary human bronchial epithelial cells (delF508-CFTR)
Outline: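 Compound tested as 10-point, 1-in-3 concentration response (0.1% or 0.2% DMSO), 24 h basolateral pre-incubation, then re-added to both sides. MTECC-24 measured Ieq in ALI-differentiated primary delF508 bronchial cells after amiloride, forskolin activation, potentiator and INH-172 block; data normalized to DMSO baseline, EC50 fitted.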

[1] = molecular target: T2, horseradish peroxidase (HRP) tagged delF508-CFTR (Homo sapiens, UniProt P13569, DEL508-508); test: Measurement of delF508-CFTR-HRP surface expression in CFBE41o- cells; assay type: cell-based; details: for Emax: read-out: DelF508-CFTR-HRP Amax %;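 for DelF508-CFTR-HRP Amax %: percent efficacy relative to reference corrector lumacaftor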
T2 construct: expressed in transfected cells
Outline: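 Surface-trafficked delF508-CFTR detected via extracellular HRP tag, read as luminescence from a membrane-impermeant substrate in CFBE41o- cells. Cells pre-induced 48h with 500 ng/mL doxycycline, then exposed 24h at 37° C to a 10-point, 3-fold dilution series from 10 μM (DMSO ≤0.5%). Triplicate dose-responses fitted logistically for EC50 after per-plate normalization; fold change versus reference compound.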

[2] = delF508-CFTR-HRP surface expression, CFBE41o- cells
[3] = delF508-CFTR-HRP surface expression, CFBE41o- cells, read-out: DelF508-CFTR-HRP EC50

T2 sequence (P13569 with tags, fused parts or gaps DEL508-508): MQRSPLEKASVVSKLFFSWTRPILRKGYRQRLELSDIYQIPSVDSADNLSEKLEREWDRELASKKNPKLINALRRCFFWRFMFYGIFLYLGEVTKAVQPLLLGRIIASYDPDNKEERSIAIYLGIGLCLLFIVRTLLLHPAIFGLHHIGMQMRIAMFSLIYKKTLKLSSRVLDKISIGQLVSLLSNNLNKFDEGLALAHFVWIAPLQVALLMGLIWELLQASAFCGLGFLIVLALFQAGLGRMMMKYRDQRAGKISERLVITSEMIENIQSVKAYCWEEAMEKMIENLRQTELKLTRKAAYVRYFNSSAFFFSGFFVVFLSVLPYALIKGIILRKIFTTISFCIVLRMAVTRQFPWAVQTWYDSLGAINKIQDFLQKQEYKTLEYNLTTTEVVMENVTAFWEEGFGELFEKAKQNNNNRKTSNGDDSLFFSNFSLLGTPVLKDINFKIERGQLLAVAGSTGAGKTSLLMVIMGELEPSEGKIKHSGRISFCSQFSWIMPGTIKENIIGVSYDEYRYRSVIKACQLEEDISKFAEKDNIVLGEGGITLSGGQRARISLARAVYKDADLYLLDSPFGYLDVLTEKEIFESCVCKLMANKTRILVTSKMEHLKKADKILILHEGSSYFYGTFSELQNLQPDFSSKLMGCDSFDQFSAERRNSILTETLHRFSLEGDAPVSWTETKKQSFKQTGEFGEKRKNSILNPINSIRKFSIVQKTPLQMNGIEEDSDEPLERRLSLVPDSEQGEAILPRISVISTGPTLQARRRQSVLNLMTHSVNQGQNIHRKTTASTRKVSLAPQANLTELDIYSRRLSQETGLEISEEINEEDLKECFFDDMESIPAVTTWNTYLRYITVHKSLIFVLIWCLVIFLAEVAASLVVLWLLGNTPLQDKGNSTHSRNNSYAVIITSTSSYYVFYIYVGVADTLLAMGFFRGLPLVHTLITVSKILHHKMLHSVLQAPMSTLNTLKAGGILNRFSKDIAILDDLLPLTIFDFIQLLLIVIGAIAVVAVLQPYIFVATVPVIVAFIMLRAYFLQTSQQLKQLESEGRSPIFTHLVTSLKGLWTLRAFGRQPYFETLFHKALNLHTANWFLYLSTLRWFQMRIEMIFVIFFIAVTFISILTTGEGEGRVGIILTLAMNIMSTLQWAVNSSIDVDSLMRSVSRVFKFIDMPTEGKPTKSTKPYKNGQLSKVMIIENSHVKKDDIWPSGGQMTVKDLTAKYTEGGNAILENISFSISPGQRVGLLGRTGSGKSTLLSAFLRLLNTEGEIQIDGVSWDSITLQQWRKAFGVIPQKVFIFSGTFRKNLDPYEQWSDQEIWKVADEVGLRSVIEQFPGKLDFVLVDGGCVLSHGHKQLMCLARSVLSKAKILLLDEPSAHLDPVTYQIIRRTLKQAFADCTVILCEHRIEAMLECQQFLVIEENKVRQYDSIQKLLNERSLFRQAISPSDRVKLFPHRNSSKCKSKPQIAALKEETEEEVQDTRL
T1 sequence (P13569 with tags, fused parts or gaps DEL508-508): as above

Row | SMILES | MTECC24 CFHBEC- Amax % (delF508-CFTR) | EC50 (delF508-CFTR) | Emax [1, 2] | EC50 [1, 3] | EC50 [1] | Emax ([1]; CFBE41o-)
1 | Cc1ccc(F)cc1-c1nc(NS(=O)(=O)c2cccc(N3CCNCC3)n2)ccc1Cl [Example 193, N-(5-chloro-6-(5-fluoro-2-methylphenyl)pyridin-2-yl)-6-(piperazin-1-yl)pyridine-2-sulfonamide hydrochloride] | 81.2% | 178 nM | 385% | 3920 nM |  | 
2 | Cc1cccc(C)c1-c1nc(NS(=O)(=O)c2cccc(O[C@@H]3CO[C@H](CO)C3)n2)ccc1Cl [Example 288, N-[5-chloro-6-(2,6-dimethylphenyl)pyridin-2-yl]-6-{[(3S,5S)-5-(hydroxymethyl)oxolan-3-yl]oxy}pyridine-2-sulfonamide] | 69.5% | 34.1 nM | 495% | 1710 nM |  | 
3 | Cc1ccc(F)cc1-c1nc(NS(=O)(=O)c2ccnc(N)c2)ccc1C(F)(F)F [Example 42, 2-amino-N-(6-(5-fluoro-2-methylphenyl)-5-(trifluoromethyl)pyridin-2-yl)pyridine-4-sulfonamide] | 72.4% | 39.9 nM | 367% | 2260 nM |  | 
4 | Cc1cccc(C)c1-c1nc(NS(=O)(=O)c2cccc(O[C@H]3CC[C@@H](C(=O)O)CC3)n2)ccc1Cl [Example 129, (1s,4s)-4-((6-(N-(5-chloro-6-(2,6-dimethylphenyl)pyridin-2-yl)sulfamoyl)pyridin-2-yl)oxy)cyclohexane-1-carboxylic Acid] | 54.8% | 19.5 nM |  | 1720 nM |  | 
5 | Cc1ccc(F)cc1-c1nc(NS(=O)(=O)c2cccc(N3CCN(C4CC4)CC3)n2)ccc1C(F)(F)F [Example 145, 6-(4-cyclopropylpiperazin-1-yl)-N-(6-(5-fluoro-2-methylphenyl)-5-(trifluoromethyl)pyridin-2-yl)pyridine-2-sulfonamide] | 90.9% | 5 nM |  | 1270 nM |  | 
6 | CC1(O)CN(c2cccc(S(=O)(=O)Nc3ccc(C(F)(F)F)c(-c4ccccc4Cl)n3)n2)C1 [Example 221, N-(6-(2-chlorophenyl)-5-(trifluoromethyl)pyridin-2-yl)-6-(3-hydroxy-3-methylazetidin-1-yl)pyridine-2-sulfonamide] | 63.5% | 7 nM | 552% | 1320 nM |  | 
7 | COc1ccc(Cl)c(-c2nc(NS(=O)(=O)c3cccc(N4CC(O)C4)n3)ccc2Cl)c1 [Example 228, N-(5-chloro-6-(2-chloro-5-methoxyphenyl)pyridin-2-yl)-6-(3-hydroxyazetidin-1-yl)pyridine-2-sulfonamide] | 87.0% | 38.1 nM | 405% | 2990 nM |  | 
8 | Cc1c(F)cccc1-c1nc(NS(=O)(=O)c2cccc(N3CC(O)C3)n2)ccc1C(F)(F)F [Example 216, N-(6-(3-fluoro-2-methylphenyl)-5-(trifluoromethyl)pyridin-2-yl)-6-(3-hydroxyazetidin-1-yl)pyridine-2-sulfonamide] | 82.1% | 4.8 nM | 446% | 1710 nM |  | 
9 | Cc1ccccc1-c1nc(NS(=O)(=O)c2cccc(N3CCN(C(=O)OC(C)(C)C)[C@H](C)C3)n2)ccc1C(F)(F)F [Example 166, tert-butyl (R)-2-methyl-4-(6-(N-(6-(o-tolyl)-5-(trifluoromethyl)pyridin-2-yl)sulfamoyl)pyridin-2-yl)piperazine-1-carboxylate] | 62.4% | 11.8 nM |  | 744 nM |  | 
10 | Cc1ccccc1-c1nc(NS(=O)(=O)c2cccc(N3CC4CCC(C3)N4)n2)ccc1C(F)(F)F [Example 181, 6-(3,8-diazabicyclo[3.2.1]octan-3-yl)-N-(6-(o-tolyl)-5-(trifluoromethyl)pyridin-2-yl)pyridine-2-sulfonamide Hydrochloride] | 101.5% | 39.8 nM |  |  | 2670 nM | 454%
11 | O=S(=O)(Nc1ccc(C(F)(F)F)c(-c2ccccc2C2CC2)n1)c1cccc(N2CCNCC2)n1 [Example 148, N-(6-(2-cyclopropylphenyl)-5-(trifluoromethyl)pyridin-2-yl)-6-(piperazin-1-yl)pyridine-2-sulfonamide] | 74.1% | 85.4 nM | 363% | 2460 nM |  | 
12 | Cc1ccccc1-c1nc(NS(=O)(=O)c2cccc(N3CCN(C(=O)CN)CC3)n2)ccc1C(F)(F)F [Example 191, 6-(4-glycylpiperazin-1-yl)-N-(6-(o-tolyl)-5-(trifluoromethyl)pyridin-2-yl)pyridine-2-sulfonamide hydrochloride] | 64.4% | 101 nM | 206% | 3860 nM |  | 
13 | Cc1ccccc1-c1nc(NS(=O)(=O)c2cccc(N3CCCC(C)(C(=O)O)C3)n2)ccc1C(F)(F)F (centres unmarked) [Example 337, 3-methyl-1-(6-{[6-(2-methylphenyl)-5-(trifluoromethyl)pyridin-2-yl]sulfamoyl}pyridin-2-yl)piperidine-3-carboxylic Acid] | 51.5% | 2.72 nM |  | 2250 nM |  | 
14 | Nc1cccc(S(=O)(=O)Nc2ccc(C(F)(F)F)c(-c3ccc(F)cc3Cl)n2)n1 [Example 41, 6-amino-N-(6-(2-chloro-4-fluorophenyl)-5-(trifluoromethyl)pyridin-2-yl)pyridine-2-sulfonamide] | 88.8% | 13.9 nM | 368% | 2340 nM |  | 
15 | Cc1cccc(C)c1-c1nc(NS(=O)(=O)c2cccc(O[C@@H]3COC[C@@H]3O)n2)ccc1Cl (racemic) [Example 290, rac-N-[5-chloro-6-(2,6-dimethylphenyl)pyridin-2-yl]-6-{[(3R,4S)-4-hydroxyoxolan-3-yl]oxy}pyridine-2-sulfonamide] | 71.4% | 46.6 nM | 616% | 1440 nM |  | 
16 | COc1ccc(F)cc1-c1nc(NS(=O)(=O)c2cccc(N3CCN(C(C)(C)C)CC3)n2)ccc1C(F)(F)F [Example 149, 6-(4-(tert-butyl)piperazin-1-yl)-N-(6-(5-fluoro-2-methoxyphenyl)-5-(trifluoromethyl)pyridin-2-yl)pyridine-2-sulfonamide] | 76.0% | 22.8 nM | 289% | 1750 nM |  | 
17 | Cc1c(F)cccc1-c1nc(NS(=O)(=O)c2cccc(N3CC(C)(O)C3)n2)ccc1C(F)(F)F [Example 215, N-(6-(3-fluoro-2-methylphenyl)-5-(trifluoromethyl)pyridin-2-yl)-6-(3-hydroxy-3-methylazetidin-1-yl)pyridine-2-sulfonamide] | 66.4% | 4.7 nM | 303% | 2100 nM |  | 
18 | CNC1CCN(c2cccc(S(=O)(=O)Nc3ccc(C(F)(F)F)c(-c4ccccc4C)n3)n2)CC1 [Example 109, 6-(4-(methylamino)piperidin-1-yl)-N-(6-(o-tolyl)-5-(trifluoromethyl)pyridin-2-yl)pyridine-2-sulfonamide Hydrochloride] | 84.9% | 170 nM | 332% | 2680 nM |  | 
19 | CCc1ccccc1-c1nc(NS(=O)(=O)c2cccc(N3CCCC(C)(C(=O)O)C3)n2)ccc1C(F)(F)F (centres unmarked) [Example 371, 1-(6-(N-(6-(2-ethylphenyl)-5-(trifluoromethyl)pyridin-2-yl)sulfamoyl)pyridin-2-yl)-3-methylpiperidine-3-carboxylic Acid] | 254.3% | 1.97 nM | 962% | 1130 nM |  | 
20 | O=S(=O)(Nc1ccc(C(F)(F)F)c(-c2ccccc2C2CC2)n1)c1cccc(N2CC(O)C2)n1 [Example 208, N-(6-(2-cyclopropylphenyl)-5-(trifluoromethyl)pyridin-2-yl)-6-(3-hydroxyazetidin-1-yl)pyridine-2-sulfonamide] | 88.1% | 5.2 nM | 607% | 1380 nM |  | 
21 | CC(=O)N1CCN(c2cccc(S(=O)(=O)Nc3ccc(C(F)(F)F)c(-c4cc(F)ccc4C)n3)n2)CC1 [Example 180, 6-(4-acetylpiperazin-1-yl)-N-(6-(5-fluoro-2-methylphenyl)-5-(trifluoromethyl)pyridin-2-yl)pyridine-2-sulfonamide] | 44.5% | 9.4 nM | 627% | 1500 nM |  | 
22 | Cc1ccccc1-c1nc(NS(=O)(=O)c2cccc(N[C@@H]3COCC[C@H]3O)n2)ccc1C(F)(F)F [Example 279, 6-{[(3R,4R)-4-hydroxyoxan-3-yl]amino}-N-[6-(2-methylphenyl)-5-(trifluoromethyl)pyridin-2-yl]pyridine-2-sulfonamide] | 93.7% | 3.5 nM |  | 1190 nM |  | 
